Test results: PMC8343220, “The selectivity of α‐adrenoceptor agonists for the human α1A, α1B, and α1D‐adrenoceptors” (Pharmacology Research & Perspectives, 2021)

Experiments:
human α1B‐adrenoceptor [1] = molecular target: T1, human α1B‐adrenoceptor (Homo sapiens, UniProt P35368); test: Intracellular free calcium mobilization, CHO‐α1B cells; type: cell-based; conditions: CHO‐α1B cells; for Intracellular calcium release Log EC50: given as log EC50 (negative numbers); for Intracellular calcium release % ionomycin: maximal response as % of 10 µM ionomycin response; for Intracellular calcium release % Ionomycin at 100 µM: response at 100 µM ligand (no EC50 given), % of ionomycin response
T1 construct: expressed in transfected cells; host or cells: CHO-K1
T1 sequence (P35368 1-520): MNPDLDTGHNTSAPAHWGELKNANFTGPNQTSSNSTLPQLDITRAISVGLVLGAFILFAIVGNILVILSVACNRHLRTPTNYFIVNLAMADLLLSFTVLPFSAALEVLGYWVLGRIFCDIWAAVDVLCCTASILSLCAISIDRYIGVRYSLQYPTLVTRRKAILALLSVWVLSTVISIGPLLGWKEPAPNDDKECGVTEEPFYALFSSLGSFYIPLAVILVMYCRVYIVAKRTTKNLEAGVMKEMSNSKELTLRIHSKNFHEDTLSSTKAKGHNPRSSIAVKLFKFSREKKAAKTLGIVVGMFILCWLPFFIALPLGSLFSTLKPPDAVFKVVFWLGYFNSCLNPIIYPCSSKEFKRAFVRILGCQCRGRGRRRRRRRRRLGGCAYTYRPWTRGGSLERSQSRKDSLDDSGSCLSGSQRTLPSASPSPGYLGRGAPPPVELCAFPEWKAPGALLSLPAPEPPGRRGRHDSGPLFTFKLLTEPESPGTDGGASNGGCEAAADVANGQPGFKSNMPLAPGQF

human α1A‐adrenoceptor [2] = molecular target: T2, human α1A‐adrenoceptor (Homo sapiens, UniProt P35348); test: ERK1/2‐phosphorylation (Surefire Alphascreen), CHO‐α1A cells; type: cell-based; conditions: CHO‐α1A cells; % of 10 µM PDBu; ^a bi‐phasic: initial stimulatory part
T2 construct: expressed in transfected cells; host or cells: CHO-K1
T2 sequence (P35348 1-466): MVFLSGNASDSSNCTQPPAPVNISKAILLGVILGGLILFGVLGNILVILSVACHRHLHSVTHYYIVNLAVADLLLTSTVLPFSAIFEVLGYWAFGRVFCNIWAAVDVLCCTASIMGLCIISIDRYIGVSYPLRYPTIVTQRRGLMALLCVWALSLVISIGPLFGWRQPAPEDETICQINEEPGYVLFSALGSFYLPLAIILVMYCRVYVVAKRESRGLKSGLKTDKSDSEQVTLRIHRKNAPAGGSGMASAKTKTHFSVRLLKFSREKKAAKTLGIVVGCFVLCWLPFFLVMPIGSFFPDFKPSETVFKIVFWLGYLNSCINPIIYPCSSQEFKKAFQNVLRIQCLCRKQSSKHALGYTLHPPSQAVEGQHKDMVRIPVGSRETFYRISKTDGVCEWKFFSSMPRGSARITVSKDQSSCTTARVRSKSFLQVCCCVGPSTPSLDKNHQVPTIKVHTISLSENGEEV

human α1B‐adrenoceptor [3] = molecular target: T1, human α1B‐adrenoceptor; test: ERK1/2‐phosphorylation (Surefire Alphascreen), CHO‐α1B cells; type: cell-based; conditions: CHO‐α1B cells; maximal response as % PDBu response; for bi‐phasic responses the initial stimulatory part
human α1B‐adrenoceptor [4] = molecular target: T1, human α1B‐adrenoceptor; conditions: CHO‐α1B cells, ref Proudman et al., 2020, cited from earlier work; for Log KD α1B, ^3H‐prazosin whole cell binding: given as log KD (negative), ligands marked ^a
human α1A‐adrenoceptor [5] = molecular target: T2, human α1A‐adrenoceptor; test: ^3H‐prazosin whole‐cell radioligand binding, CHO‐α1A cells
[6] = molecular target: T3, human α1D‐adrenoceptor (full length) (Homo sapiens, UniProt P25100); test: ERK1/2‐phosphorylation (Surefire Alphascreen), CHO‐α1D cells; type: cell-based; conditions: CHO‐α1D cells; for ERK1/2‐phosphorylation % PDBu: maximal response as % of PDBu
T3 construct: human α1D‐adrenoceptor (full length) were used; expressed in transfected cells; host or cells: CHO-K1
T3 sequence (P25100 1-572): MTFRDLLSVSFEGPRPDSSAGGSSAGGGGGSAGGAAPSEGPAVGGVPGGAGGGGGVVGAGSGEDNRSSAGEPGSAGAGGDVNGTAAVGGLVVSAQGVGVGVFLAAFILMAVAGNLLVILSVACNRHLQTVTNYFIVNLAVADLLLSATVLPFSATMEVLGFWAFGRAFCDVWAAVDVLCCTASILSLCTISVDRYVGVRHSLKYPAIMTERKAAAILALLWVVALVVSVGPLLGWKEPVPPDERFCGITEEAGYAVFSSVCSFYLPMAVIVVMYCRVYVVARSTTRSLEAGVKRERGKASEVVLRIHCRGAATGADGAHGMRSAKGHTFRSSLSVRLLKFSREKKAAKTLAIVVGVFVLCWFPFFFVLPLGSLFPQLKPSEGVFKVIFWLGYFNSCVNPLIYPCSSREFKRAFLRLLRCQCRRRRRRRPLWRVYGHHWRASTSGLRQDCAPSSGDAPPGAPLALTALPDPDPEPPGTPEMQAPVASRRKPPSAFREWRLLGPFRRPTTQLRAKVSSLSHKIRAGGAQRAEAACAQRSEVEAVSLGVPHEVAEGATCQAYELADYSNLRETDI

[7] = test system: parental CHO cell line without any transfected receptors; test: ERK1/2‐phosphorylation, parent CHO cells without transfected receptors; type: cell-based, Chinese hamster
[8] = molecular target: T3, human α1D‐adrenoceptor (full length); test: Intracellular free calcium mobilization, CHO‐α1D cells; type: cell-based; conditions: CHO‐α1D cells; for Intracellular calcium release % ionomycin: maximal response as % of 10 µM ionomycin
human α1A‐adrenoceptor [9] = molecular target: T2, human α1A‐adrenoceptor; test: Intracellular free calcium mobilization, CHO‐α1A cells; type: cell-based; conditions: for Intracellular calcium release % ionomycin: maximal response as % of 10 µM ionomycin
[10] = molecular target: T3, human α1D‐adrenoceptor (full length); test: ^3H‐prazosin whole‐cell radioligand binding, CHO‐α1D cells
human α1A‐adrenoceptor [11] = molecular target: T2, human α1A‐adrenoceptor; conditions: CHO‐α1A cells; given as log KD (negative); ligands marked ^a; ref Proudman et al., 2020; cited from earlier work
[12] = molecular target: T3, human α1D‐adrenoceptor (full length); conditions: CHO‐α1D cells; ligands marked ^a; ref Proudman et al., 2020; cited from earlier work
human α1A‐adrenoceptor [13] = molecular target: T2, human α1A‐adrenoceptor; test: ^3H‐cAMP accumulation, CHO‐α1A cells; type: cell-based; conditions: CHO‐α1A cells; for cAMP accumulation Log EC50: 5 h; for cAMP accumulation % forskolin: % of 10 µM forskolin response
human α1A‐adrenoceptor [14] = molecular target: T2, human α1A‐adrenoceptor; test: ^3H‐cAMP accumulation in the presence of 10 μM forskolin, CHO‐α1A cells; type: cell-based; conditions: CHO‐α1A cells; 10 μM forskolin
[15] = test system: parental CHO cell line without any transfected receptors; test: Forskolin‐stimulated cAMP accumulation, parent CHO cells without transfected receptors; type: cell-based, Chinese hamster; conditions: CHO cells without transfected receptors; in presence of forskolin
[16] = test system: parental CHO cell line without any transfected receptors; test: Intracellular calcium mobilization, parent CHO cells without transfected receptors; type: cell-based, Chinese hamster; conditions: Cricetulus griseus; CHO cells without transfected receptors; response at maximum concentration used (c2), as % of ionomycin (10μM) response; mean ± s.e.m.; read-out: Intracellular calcium release % ionomycin
[17] = CHO‐α1A cells, given as log EC50 (negative)
[18] = response at 100 µM ligand (no EC50 given)
[19] = CHO cells without transfected receptors, maximal response as % of PDBu (10μM) response, mean ± s.e.m.

Compound	Intracellular calcium release Log EC50 (human α1B‐adrenoceptor [1])	Intracellular calcium release % ionomycin (human α1B‐adrenoceptor [1])	ERK1/2‐phosphorylation % PDBu (human α1A‐adrenoceptor [2])	ERK1/2‐phosphorylation % PDBu (human α1B‐adrenoceptor [3])	ERK1/2‐phosphorylation % PDBu [6]	Intracellular calcium release % ionomycin [8]	Intracellular calcium release % ionomycin (human α1A‐adrenoceptor [9]; CHO‐α1A cells)	Log KD α1B, ^3H‐prazosin whole cell binding (human α1B‐adrenoceptor [4])	Log KD α1A, ^3H‐prazosin whole cell binding (human α1A‐adrenoceptor [11])	% site 1 (% of the response at the first component), α1D two‐component binding curve [12]	cAMP accumulation Log EC50 (human α1A‐adrenoceptor [13])	cAMP accumulation % forskolin (human α1A‐adrenoceptor [13])	Intracellular calcium release Log EC50 (human α1A‐adrenoceptor [9]; [17])	cAMP accumulation (in presence of forskolin) Log EC50 (human α1A‐adrenoceptor [14])	Intracellular calcium release % Ionomycin at 100 µM (human α1B‐adrenoceptor [1])	cAMP accumulation (in presence of forskolin) Log EC50 [15]	ERK1/2-phosphorylation % PDBu [7, 19]	also measured
CC(C)(C)NCC(O)COc1cccc2[nH]c(=O)[nH]c12 (stereo not shown) [CGP 12177]	No response	No response	86.8 ± 2.6%	38.1 ± 3.8%	25.8 ± 3.2%	No response	37.0 ± 2.8%											Log IC50 α1B, ^3H‐prazosin whole cell binding (human α1B‐adrenoceptor [4]; printed as IC50> log value, ligand marked ^a): IC50>−4; Affinity selectivity ratio α1A vs α1B (human α1A‐adrenoceptor [5]): >13.8 fold; Emax ([7]; Cricetulus griseus, CHO cells without transfected receptors, maximal response as % of PDBu (10μM) response, mean ± s.e.m., read-out: ERK1/2-phosphorylation % PDBu): 22.8 ± 4.3%; EC50 ([7]; Cricetulus griseus, CHO cells without transfected receptors, mean ± s.e.m., read-out: ERK1/2-phosphorylation Log EC50 (converted)): 977 nM; ERK1/2‐phosphorylation response in parent CHO cells ([7]; untransfected cells): stimulated ERK1/2‐phosphorylation responses; Intracellular calcium release Log EC50 ([8]; log values given negative): No response; Log efficacy ratio KD /EC50 (human α1A‐adrenoceptor [9]): 1.04; EC50 (human α1A‐adrenoceptor [9]; CHO‐α1A cells, given as log EC50 (negative), read-out: Intracellular calcium release Log EC50 (converted)): 661 nM; Affinity selectivity ratio α1B vs α1D [10]: >1.6 fold
O=C1Nc2ccccc2C2=NC(CN3CCN(c4ccccc4)CC3)CN12 (stereo not shown) [2‐PMDQ]	No response	No response	10.4 ± 3.4%		No response	No response	16.6 ± 1.8%	−6.95 ± 0.05	−8.19 ± 0.09	57.6 ± 2.8%	No response	No response	−7.63 ± 0.13	No response				
COc1ccccc1N1CCN(CCN2C(=O)CC3(CCCC3)CC2=O)CC1 [BMY7378]			29.0 ± 4.7%	No response			25.0 ± 3.4%			57.7 ± 2.6%		No response			8.0 ± 2.1%	No response	No response	ERK1/2‐phosphorylation % PDBu at 100 µM [6, 18]: 3.0 ± 1.5%; Intracellular calcium release % Ionomycin at 100 µM [8, 18]: 4.2 ± 1.0%; Emax [16]: 7.8 ± 2.2%
COc1ccccc1N1CCN(CC2CN3C(=O)N(C)c4ccccc4C3=N2)CC1 (stereo not shown) [2‐MPMDQ]			13.6 ± 3.7%	No response	No response	No response	19.7 ± 2.0%	−7.37 ± 0.04	−9.06 ± 0.07	64.0 ± 2.1%	No response	No response	−7.69 ± 0.08	No response	3.1 ± 1.5%			
COc1ccccc1N1CCN(CCN2C(=O)c3ccccc3C(C)(C)C2=O)CC1 [ARC239]			29.2 ± 3.8%	No response	No response	No response	20.8 ± 2.0%	−8.15 ± 0.07	−9.35 ± 0.08	60.5 ± 1.4%	−8.41 ± 0.23	1.2 ± 0.2%	−7.99 ± 0.19		4.8 ± 1.7%	No response	No response	
